Data from patent US10555535B2, “Pest control composition and pest control method” (SUMITOMO CHEMICAL COMPANY, LIMITED, priority 2015, dated 2020).

Columns and labels:
Aphis gossypii = assay: Test Example 12: treated soybean seeds, controlling effect on Aphis gossypii; format: in vivo
Experimental: In a rotary seed treatment machine (trade name: HEGE11, manufactured by WINTERSTEIGER), soybean seeds (variety:“Hatayutaka”) were treated by smearing treatment using flowable formulation of the present bacterial strain obtained in Formulation Example 14, flupyradifurone liquid formulation (20.0% liquid formulation, trade name: SIVANTO200, Bayer CropScience), thiacloprid flowable formulation (40.0% flowable formulation, trade name: Sonido, Bayer CropScience), thiamethoxam flowable formulation (47.6% flowable formulation, trade name: Cruiser 5FS, Syngenta Crop Protection LCC), so that the soybean seeds retain the present bacterial strain and the compound in the amount shown in Table 5.
Twenty Aphis gossypii were released on the 14th day after the seeding, and the number of living Aphis gossypii was counted on the 5th day after the release. Similar procedures were conducted using untreated soybean seeds, instead of the treated soybean seeds, as described above for the treated compartment (“untreated compartment”).
(§1) Based on the numbers of survivors in the treated compartment and the untreated compartment, the effect in the treated compartment was calculated by the following equation. Controlling effect=100×[(number of survivors in untreated compartment−number of survivors in treated compartment)/number of survivors in untreated compartment]
(§2) If the effect by the combination of two active ingredients is greater than that of the estimated value E, which is calculated by the Colby's equation as follows, the effect is regarded as synergistic. E=X+Y−X·Y/100 wherein, • E=Controlling effect when using the mixture of the active ingredients A and B at the concentrations m and n (amount of the active ingredient), respectively. • X=Controlling effect when using the active ingredient A at the concentration m (amount of the active ingredient). • Y=Controlling effect when using the active ingredient B at the concentration n (amount of the active ingredient).

[1] = tested on: Diabrotica virgifera virgifera; assay: Test Example 13: treated corn seeds, controlling effect on Diabrotica virgifera virgifera larvae; format: in vivo
Experimental: as §2
In a rotary seed treatment machine (trade name: HEGE11, manufactured by WINTERSTEIGER), corn seeds (variety: yellow dent corn) were treated by smearing treatment using the wettable powder of the present bacterial strain obtained in Formulation Example 13 or clothianidin flowable formulation (47.8% flowable formulation, trade name: NipsIt Inside Insecticide, Valent U.S.A. Corporation), or imidacloprid flowable formulation (48.7% flowable formulation, trade name: Gaucho 600, Bayer CropScience), so that the corn seeds thus treated retain the present bacterial strain, clothianidin or imidacloprid in the amount shown in Table 6.
In a rotary seed treatment machine (trade name: HEGE11, manufactured by WINTERSTEIGER), the corn seeds thus treated with clothianidin or imidacloprid were treated by wet powder coating with a wettable powder of the present bacterial strain as obtained in Formulation Example 13, so that the […] thus treated retain the present bacterial strain and clothianidin or the present bacterial strain and imidacloprid in the amount shown in Table 6.
Newly hatched larvae of Diabrotica virgifera virgifera are released (10 for each stalk of corn) on the 7th day after the seeding, and the number of living Diabrotica virgifera virgifera was counted on the 10th day after the release. Similar procedures were conducted using untreated corn seeds, instead of the treated corn seeds, as described above for the treated compartment (“untreated compartment”).
as §1, with “compartment number” for “compartment−number”

`N#C/N=C1\SCCN1Cc1ccc(Cl)nc1` [Thiacloprid, thiacloprid] was tested, and the “Controlling Effect” value (Aphis gossypii; soybean seeds retaining 0.3 g /Kg seeds) was 56.9 and the “Controlling Effect” value (Aphis gossypii; soybean seeds retaining 0.45 g /Kg seeds) was 69.0.
For `CN/C(=N\[N+](=O)[O-])NCc1cnc(Cl)s1` [Clothianidin, clothianidin], the “Controlling Effect” value ([1]; corn seeds retaining 0.6 g /Kg seeds) was 41.4 and the “Controlling Effect” value ([1]; corn seeds retaining 1.2 g /Kg seeds) was 64.3.
With `O=[N+]([O-])NC1=NCCN1Cc1ccc(Cl)nc1` [Imidacloprid, imidacloprid] the “Controlling Effect” value ([1]; corn seeds retaining 2.0 g /Kg seeds) was 51.4 and the “Controlling Effect” value ([1]; corn seeds retaining 2.5 g /Kg seeds) was 62.8.
With `O=C1C=C(N(Cc2ccc(Cl)nc2)CC(F)F)CO1` [Flupyradifurone, flupyradifurone] the “Controlling Effect” value (Aphis gossypii; soybean seeds retaining 0.2 g /Kg seeds) was 65.9 and the “Controlling Effect” value (Aphis gossypii; soybean seeds retaining 0.4 g /Kg seeds) was 77.6.
For `CN1COCN(Cc2cnc(Cl)s2)/C1=N\[N+](=O)[O-]` [Thiamethoxam, thiamethoxam], the “Controlling Effect” value (Aphis gossypii; soybean seeds retaining 0.15 g /Kg seeds) was 70.6 and the “Controlling Effect” value (Aphis gossypii; soybean seeds retaining 0.25 g /Kg seeds) was 78.4.
